From the supplement of paper PMC10307832

Legend:
Assay in all cases: relative viability (nuclei count vs DMSO), 5 days (fraction); higher = more cells survive
[1] = compound: CS(=O)(=O)c1ccc(C(=O)Nc2ccc(Cl)c(-c3ccccn3)c2)c(Cl)c1 [Vismodegib] + N=C(N)NC(=N)NCCc1ccccc1 [Phenformin] (partner 250 µM)
Summary of the method: (§1)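 Each reported value is a median over duplicate plates. It expresses relative viability: treated-well nuclei count divided by vehicle-well nuclei count. Lung cancer cell lines in 1536-well plates were dosed by pin tool a day after seeding, alone with one drug or with a fixed anchor-drug dose plus five library-drug doses (not always all listed) in √10 steps, and nuclei were counted after 5 days.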

[2] = compound: CS(=O)(=O)c1ccc(-c2cnc(N)c(C(=O)Nc3ccccc3)n2)cc1 [VE-821] + Cc1nc(Nc2ncc(C(=O)Nc3c(C)cccc3Cl)s2)cc(N2CCN(CCO)CC2)n1 [Dasatinib] (partner 0.075 µM)
Summary of the method: as §1

[3] = compound: CS(=O)(=O)c1ccc(-c2cnc(N)c(C(=O)Nc3ccccc3)n2)cc1 [VE-821] + COc1cccc2cc(-c3nc([C@H]4CC[C@H](C(=O)O)CC4)n4ncnc(N)c34)[nH]c12 [OSI-027] (partner 0.5 µM)
Summary of the method: as §1

[4] = compound: CS(=O)(=O)c1ccc(C(=O)Nc2ccc(Cl)c(-c3ccccn3)c2)c(Cl)c1 [Vismodegib] + CC(=O)Nc1cccc(-n2c(=O)n(C3CC3)c(=O)c3c(Nc4ccc(I)cc4F)n(C)c(=O)c(C)c32)c1 [Trametinib] (partner 0.02 µM)
Summary of the method: as §1

BEN
relative viability ([1]; first compound 0.08 µM): 0.249 | relative viability ([1]; first compound 0.253 µM): 0.281 | relative viability ([1]; first compound 0.8 µM): 0.292 | relative viability ([1]; first compound 2.53 µM): 0.255 | relative viability ([1]; first compound 8 µM): 0.248 | relative viability ([2]; first compound 0.08 µM): 0.31 | relative viability ([2]; first compound 0.253 µM): 0.337 | relative viability ([2]; first compound 0.8 µM): 0.282 | relative viability ([2]; first compound 2.53 µM): 0.291 | relative viability ([2]; first compound 8 µM): 0.364 | relative viability ([3]; first compound 0.08 µM): 0.279 | relative viability ([3]; first compound 0.253 µM): 0.297 | relative viability ([3]; first compound 0.8 µM): 0.332 | relative viability ([3]; first compound 2.53 µM): 0.277 | relative viability ([3]; first compound 8 µM): 0.316 | relative viability ([4]; first compound 0.08 µM): 1.14 | relative viability ([4]; first compound 0.253 µM): 1.03 | relative viability ([4]; first compound 0.8 µM): 0.873 | relative viability ([4]; first compound 2.53 µM): 1.14 | relative viability ([4]; first compound 8 µM): 1.1

NCI-H661
relative viability ([1]; first compound 0.08 µM): 0.31 | relative viability ([1]; first compound 0.253 µM): 0.264 | relative viability ([1]; first compound 0.8 µM): 0.3 | relative viability ([1]; first compound 2.53 µM): 0.259 | relative viability ([1]; first compound 8 µM): 0.291 | relative viability ([2]; first compound 0.08 µM): 0.934 | relative viability ([2]; first compound 0.253 µM): 0.668 | relative viability ([2]; first compound 0.8 µM): 0.884 | relative viability ([2]; first compound 2.53 µM): 0.865 | relative viability ([2]; first compound 8 µM): 0.434 | relative viability ([3]; first compound 0.08 µM): 0.805 | relative viability ([3]; first compound 0.253 µM): 0.743 | relative viability ([3]; first compound 0.8 µM): 0.783 | relative viability ([3]; first compound 2.53 µM): 0.758 | relative viability ([3]; first compound 8 µM): 0.663 | relative viability ([4]; first compound 0.08 µM): 0.549 | relative viability ([4]; first compound 0.253 µM): 0.611 | relative viability ([4]; first compound 0.8 µM): 0.649 | relative viability ([4]; first compound 2.53 µM): 0.558 | relative viability ([4]; first compound 8 µM): 0.622

NCI-H1395
relative viability ([1]; first compound 0.08 µM): 0.345 | relative viability ([1]; first compound 0.253 µM): 0.397 | relative viability ([1]; first compound 0.8 µM): 0.411 | relative viability ([1]; first compound 2.53 µM): 0.439 | relative viability ([1]; first compound 8 µM): 0.485 | relative viability ([2]; first compound 0.08 µM): 0.396 | relative viability ([2]; first compound 0.253 µM): 0.432 | relative viability ([2]; first compound 0.8 µM): 0.38 | relative viability ([2]; first compound 2.53 µM): 0.45 | relative viability ([2]; first compound 8 µM): 0.401 | relative viability ([3]; first compound 0.08 µM): 0.684 | relative viability ([3]; first compound 0.253 µM): 0.605 | relative viability ([3]; first compound 0.8 µM): 0.607 | relative viability ([3]; first compound 2.53 µM): 0.639 | relative viability ([3]; first compound 8 µM): 0.484 | relative viability ([4]; first compound 0.08 µM): 0.851 | relative viability ([4]; first compound 0.253 µM): 0.958 | relative viability ([4]; first compound 0.8 µM): 0.878 | relative viability ([4]; first compound 2.53 µM): 0.921 | relative viability ([4]; first compound 8 µM): 1.1

LCLC-97TM1
relative viability ([1]; first compound 0.08 µM): 0.443 | relative viability ([1]; first compound 0.253 µM): 0.407 | relative viability ([1]; first compound 0.8 µM): 0.42 | relative viability ([1]; first compound 2.53 µM): 0.452 | relative viability ([1]; first compound 8 µM): 0.407 | relative viability ([2]; first compound 0.08 µM): 1.1 | relative viability ([2]; first compound 0.253 µM): 0.763 | relative viability ([2]; first compound 0.8 µM): 0.756 | relative viability ([2]; first compound 2.53 µM): 0.838 | relative viability ([2]; first compound 8 µM): 0.639 | relative viability ([3]; first compound 0.08 µM): 0.564 | relative viability ([3]; first compound 0.253 µM): 0.506 | relative viability ([3]; first compound 0.8 µM): 0.669 | relative viability ([3]; first compound 2.53 µM): 0.786 | relative viability ([3]; first compound 8 µM): 0.668 | relative viability ([4]; first compound 0.08 µM): 0.207 | relative viability ([4]; first compound 0.253 µM): 0.166 | relative viability ([4]; first compound 0.8 µM): 0.205 | relative viability ([4]; first compound 2.53 µM): 0.173 | relative viability ([4]; first compound 8 µM): 0.208

HCC-827
relative viability ([1]; first compound 0.08 µM): 0.39 | relative viability ([1]; first compound 0.253 µM): 0.406 | relative viability ([1]; first compound 0.8 µM): 0.381 | relative viability ([1]; first compound 2.53 µM): 0.384 | relative viability ([1]; first compound 8 µM): 0.408 | relative viability ([2]; first compound 0.08 µM): 0.322 | relative viability ([2]; first compound 0.253 µM): 0.294 | relative viability ([2]; first compound 0.8 µM): 0.289 | relative viability ([2]; first compound 2.53 µM): 0.421 | relative viability ([2]; first compound 8 µM): 0.262 | relative viability ([3]; first compound 0.08 µM): 0.845 | relative viability ([3]; first compound 0.253 µM): 0.865 | relative viability ([3]; first compound 0.8 µM): 0.886 | relative viability ([3]; first compound 2.53 µM): 0.838 | relative viability ([3]; first compound 8 µM): 0.683 | relative viability ([4]; first compound 0.08 µM): 0.519 | relative viability ([4]; first compound 0.253 µM): 0.491 | relative viability ([4]; first compound 0.8 µM): 0.528 | relative viability ([4]; first compound 2.53 µM): 0.522 | relative viability ([4]; first compound 8 µM): 0.509

NCI-H596
relative viability ([1]; first compound 0.08 µM): 0.71 | relative viability ([1]; first compound 0.253 µM): 0.737 | relative viability ([1]; first compound 0.8 µM): 0.748 | relative viability ([1]; first compound 2.53 µM): 0.769 | relative viability ([1]; first compound 8 µM): 0.767 | relative viability ([2]; first compound 0.08 µM): 0.545 | relative viability ([2]; first compound 0.253 µM): 0.653 | relative viability ([2]; first compound 0.8 µM): 0.643 | relative viability ([2]; first compound 2.53 µM): 0.679 | relative viability ([2]; first compound 8 µM): 0.615 | relative viability ([3]; first compound 0.08 µM): 0.648 | relative viability ([3]; first compound 0.253 µM): 0.519 | relative viability ([3]; first compound 0.8 µM): 0.534 | relative viability ([3]; first compound 2.53 µM): 0.558 | relative viability ([3]; first compound 8 µM): 0.451 | relative viability ([4]; first compound 0.08 µM): 0.746 | relative viability ([4]; first compound 0.253 µM): 0.82 | relative viability ([4]; first compound 0.8 µM): 0.744 | relative viability ([4]; first compound 2.53 µM): 0.779 | relative viability ([4]; first compound 8 µM): 0.896

NCI-H1734
relative viability ([1]; first compound 0.08 µM): 0.384 | relative viability ([1]; first compound 0.253 µM): 0.316 | relative viability ([1]; first compound 0.8 µM): 0.396 | relative viability ([1]; first compound 2.53 µM): 0.322 | relative viability ([1]; first compound 8 µM): 0.384 | relative viability ([2]; first compound 0.08 µM): 0.51 | relative viability ([2]; first compound 0.253 µM): 0.455 | relative viability ([2]; first compound 0.8 µM): 0.479 | relative viability ([2]; first compound 2.53 µM): 0.425 | relative viability ([2]; first compound 8 µM): 0.33 | relative viability ([3]; first compound 0.08 µM): 0.701 | relative viability ([3]; first compound 0.253 µM): 0.529 | relative viability ([3]; first compound 0.8 µM): 0.599 | relative viability ([3]; first compound 2.53 µM): 0.529 | relative viability ([3]; first compound 8 µM): 0.331 | relative viability ([4]; first compound 0.08 µM): 0.627 | relative viability ([4]; first compound 0.253 µM): 0.566 | relative viability ([4]; first compound 0.8 µM): 0.636 | relative viability ([4]; first compound 2.53 µM): 0.689 | relative viability ([4]; first compound 8 µM): 0.817
